According to patent US10676446B2, “Bicyclic quinazolinone derivatives” (Hoffmann-La Roche Inc., priority 2015, dated 2020):

Molecular target: human ATX (autotaxin, ENPP2), His-tagged (Homo sapiens (Human), UniProt Q13822)
Experiment: Human ATX enzyme inhibition assay (fluorescence quenching, MR121 substrate)
Type: biochemical
Details: 30 nM ATX, 1 μM MR121 substrate, 30° C., pH 8.0
Procedure, shortened: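 His-tagged human ATX (30 nM final) preincubated 15 min at 30 °C with serially diluted compound in Tris-HCl pH 8.0 buffer with Ca2+, Mg2+ and 0.01% Triton X-100. MR121-labelled fluorescence-quenched substrate then added (1 μM final) for a further 15 min at 30 °C; fluorescence read-out.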

Structure (SMILES)	IC50
CN(Cc1ccc(Cl)c(Cl)c1)C(=O)Cn1cnc2ccc(N3CCN(C(=O)C4CC(F)C4)CC3)cc2c1=O (stereo not drawn) [Example 74]	7 nM
CN(Cc1ccc(Cl)c(Cl)c1)C(=O)Cn1cnc2ccc(C3CCN(C(=O)C4COCCO4)CC3)cc2c1=O (stereo not drawn) [Example 178]	34 nM
COC1CC(C(=O)N2CCN(c3ccc4ncn(CC(=O)N(C)Cc5ccc(Cl)c(Cl)c5)c(=O)c4c3)CC2)C1 (stereo not drawn) [Example 78]	9 nM
CN(Cc1ccc(Cl)c(Cl)c1)C(=O)Cn1cnc2ccc(N3CCN(CC(=O)Nc4ccccc4)CC3)cc2c1=O [Example 112]	71 nM
CC(=O)N1CCN(c2ccc3ncn(CC(=O)N4CCCC4c4ccc(Cl)cc4)c(=O)c3c2)CC1 (stereo not drawn) [Example 47]	341 nM
COc1cc(C#N)ccc1CNC(=O)Cn1cnc2ccc(N3CCN(C(C)=O)CC3)cc2c1=O [Example 32]	89 nM
CC(=O)N1CCC(c2ccc3ncn(CC(=O)NCc4cc(Cl)cc(Cl)c4)c(=O)c3c2)CC1 [Example 164]	25 nM
CC(=O)N1CCC(c2ccc3ncn(CC(=O)N(C)Cc4ccc(Cl)c(OC(F)(F)F)c4)c(=O)c3c2)CC1 [Example 128, 2-[6-(1-Acetylpiperidin-4-yl)-4-oxoquinazolin-3-yl]-N-[[4-chloro-3-(trifluoromethoxy)phenyl]methyl]-N-methylacetamide]	15 nM
CC(=O)N1CCN(c2ccc3ncn(CC(=O)NCc4ccc(Cl)cn4)c(=O)c3c2)CC1 [Example 12]	148 nM
CC(=O)N1CCN(c2ccc3ncn(CC(=O)NCc4ccc5c(c4)OCO5)c(=O)c3c2)CC1 [Example 15]	415 nM
CC(=O)N1CCN(c2ccc3ncn(C(C)C(=O)NCc4ccc(Cl)c(Cl)c4)c(=O)c3c2)CC1 (stereo not drawn) [Example 148, 2-[6-(4-Acetylpiperazin-1-yl)-4-oxoquinazolin-3-yl]-N-[(3,4-dichlorophenyl)methyl]propanamide]	15 nM
NC1(C(=O)N2CCN(c3ccc4ncn(CC(=O)NCc5ccc(Cl)c(Cl)c5)c(=O)c4c3)CC2)COC1 [Example 70, 2-[6-[4-(3-Aminooxetane-3-carbonyl)piperazin-1-yl]-4-oxoquinazolin-3-yl]-N-[(3,4-dichlorophenyl)methyl]acetamide]	318 nM
COC(=O)CCN(Cc1ccc(Cl)c(Cl)c1)C(=O)Cn1cnc2ccc(N3CCN(C(C)=O)CC3)cc2c1=O [Example 53, Methyl 3-[[2-[6-(4-acetylpiperazin-1-yl)-4-oxoquinazolin-3-yl]acetyl]-[(3,4-dichlorophenyl)methyl]amino]propanoate]	18 nM
COC(C)C(=O)N1CCC(c2ccc3ncn(CC(=O)N(C)Cc4ccc(Cl)c(Cl)c4)c(=O)c3c2)CC1 (stereo not drawn) [Example 173]	8 nM
CC(=O)N1CCN(c2ccc3ncn(CC(=O)N[C@H](CC(N)=O)c4ccc(Cl)cc4)c(=O)c3c2)CC1 [Example 27]	340 nM
CN(Cc1ccc(C#N)c(Cl)c1)C(=O)Cn1cnc2ccc(C3CCN(C(=O)CC#N)CC3)cc2c1=O [Example 154, N-[(3-Chloro-4-cyanophenyl)methyl]-2-[6-[1-(2-cyanoacetyl)piperidin-4-yl]-4-oxoquinazolin-3-yl]-N-methylacetamide]	2 nM
CC(=O)N1CCC(O)(c2ccc3ncn(CC(=O)N(C)Cc4ccc(C#N)c(Cl)c4)c(=O)c3c2)CC1 [Example 185, 2-[6-(1-Acetyl-4-hydroxypiperidin-4-yl)-4-oxoquinazolin-3-yl]-N-[(3-chloro-4-cyanophenyl)methyl]-N-methylacetamide]	125 nM
CC(=O)N1CCCN(c2ccc3ncn(CC(=O)N(C)Cc4ccc(Cl)c(C#N)c4)c(=O)c3c2)CC1 [Example 121]	20 nM
CC(=O)N1CCN(c2ccc3ncn(CC(=O)NCc4ccc(C#N)c(F)c4)c(=O)c3c2)CC1 [Example 28, 2-[6-(4-Acetylpiperazin-1-yl)-4-oxoquinazolin-3-yl]-N-[(4-cyano-3-fluorophenyl)methyl]acetamide]	27 nM
CC(=O)N1CCN(c2ccc3ncn(CC(=O)N(CCC(=O)O)Cc4ccc(Cl)c(Cl)c4)c(=O)c3c2)CC1 [Example 54, 3-[[2-[6-(4-Acetylpiperazin-1-yl)-4-oxoquinazolin-3-yl]acetyl]-[(3,4-dichlorophenyl)methyl]amino]propanoic acid]	831 nM
CO[C@@H](C)C(=O)N1CCC(c2ccc3ncn(CC(=O)N(C)Cc4ccc(C#N)c(Cl)c4)c(=O)c3c2)CC1 [Example 159]	1 nM
CC(=O)N1CCN(c2ccc3ncn(CC(=O)NCc4ccc(F)cc4)c(=O)c3c2)CC1 [Example 14]	1470 nM
CC(=O)N1CCC(c2ccc3ncn(CC(=O)N(C)Cc4ccc(Cl)c(C#N)c4)c(=O)c3c2)CC1 [Example 126]	12 nM
CN(Cc1ccc(C#N)c(Cl)c1)C(=O)Cn1cnc2ccc(C3CCN(C(=O)C4CCC4)CC3)cc2c1=O [Example 137]	2 nM
CC(=O)N1CCN(c2ccc3ncn(CC(=O)N4CCC[C@@H]4c4ccc(C)cc4)c(=O)c3c2)CC1 [Example 48]	1580 nM
C[C@@H](O)C(=O)N1CCC(c2ccc3ncn(CC(=O)N(C)Cc4ccc(Cl)c(Cl)c4)c(=O)c3c2)CC1 [Example 174]	2 nM
CC(=O)N1CCN(c2ccc3ncn(CC(=O)N(Cc4ccc(Cl)c(Cl)c4)C(C)C)c(=O)c3c2)CC1 [Example 117, 2-[6-(4-Acetylpiperazin-1-yl)-4-oxoquinazolin-3-yl]-N-[(3,4-dichlorophenyl)methyl]-N-propan-2-ylacetamide]	16 nM

Structure (SMILES)	IC50
CNC(=O)CC(NC(=O)Cn1cnc2ccc(N3CCN(C(C)=O)CC3)cc2c1=O)c1ccc(C(F)(F)F)cc1 (stereo not drawn) [Example 4]	170 nM
CNC(=O)CN1CCN(c2ccc3ncn(CC(=O)N(C)Cc4ccc(Cl)c(Cl)c4)c(=O)c3c2)CC1 [Example 107, N-[(3,4-Dichlorophenyl)methyl]-N-methyl-2-[6-[4-[2-(methylamino)-2-oxoethyl]piperazin-1-yl]-4-oxoquinazolin-3-yl]acetamide]	67 nM
CC(=O)N1CCN(c2ccc3ncn(CC(=O)NC(CC(=O)NCC(C)C)c4ccc(C(F)(F)F)cc4)c(=O)c3c2)CC1 (stereo not drawn) [Example 6]	979 nM
CCN(CC)C(=O)CN1CCN(c2ccc3ncn(CC(=O)N(C)Cc4ccc(Cl)c(Cl)c4)c(=O)c3c2)CC1 [Example 110]	34 nM
Cn1cccc1CN1CCN(c2ccc3ncn(CC(=O)NCc4ccc(Cl)c(Cl)c4)c(=O)c3c2)CC1 [Example 99]	31 nM
CN(C)C(=O)CN1CCN(c2ccc3ncn(CC(=O)N(C)Cc4ccc(Cl)c(Cl)c4)c(=O)c3c2)CC1 [Example 108]	55 nM
CN(Cc1ccc(Cl)c(Cl)c1)C(=O)Cn1cnc2ccc(N3CCN(S(=O)(=O)CC4CCC4)CC3)cc2c1=O [Example 92]	7 nM
CC(=O)N1CCN(c2ccc3ncn(CC(=O)NCc4cccc(C#N)c4C)c(=O)c3c2)CC1 [Example 35]	71 nM
CN(Cc1ccc(Cl)c(C#N)c1)C(=O)Cn1cnc2ccc(N3CCN(CC4CCOC4)CC3)cc2c1=O (stereo not drawn) [Example 115, N-[(4-Chloro-3-cyanophenyl)methyl]-N-methyl-2-[4-oxo-6-[4-(oxolan-3-ylmethyl)piperazin-1-yl]quinazolin-3-yl]acetamide]	29 nM
CN(Cc1ccc(Cl)c(Cl)c1)C(=O)Cn1cnc2ccc(C3CCN(C(=O)C4(O)CC4)CC3)cc2c1=O [Example 179]	156 nM
CN(Cc1ccc(C#N)c(Cl)c1)C(=O)Cn1cnc2ccc(C3CCN(C(=O)C4CCO4)CC3)cc2c1=O (stereo not drawn) [Example 141]	2 nM
CC(C)[C@H](O)C(=O)N1CCC(c2ccc3ncn(CC(=O)N(C)Cc4ccc(Cl)c(Cl)c4)c(=O)c3c2)CC1 [Example 170]	14 nM
CN(Cc1ccc(Cl)c(Cl)c1)C(=O)Cn1cnc2ccc(N3CCN(CC(=O)N4CCOCC4)CC3)cc2c1=O [Example 111]	35 nM
CN(Cc1ccc(Cl)c(Cl)c1)C(=O)Cn1cnc2ccc(C3CCN(C(=O)C4CCCO4)CC3)cc2c1=O (stereo not drawn) [Example 180]	5 nM
CC(=O)N1CCC(c2ccc3ncn(CC(=O)NCc4cc(Cl)cc(C(F)(F)F)c4)c(=O)c3c2)CC1 [Example 161, 2-[6-(1-Acetylpiperidin-4-yl)-4-oxoquinazolin-3-yl]-N-[[3-chloro-5-(trifluoromethyl)phenyl]methyl]acetamide]	28 nM
CC(=O)N1CCN(c2ccc3ncn(CC(=O)NCc4ccc(Cl)nc4)c(=O)c3c2)CC1 [Example 11]	119 nM
O=C(Cn1cnc2ccc(N3CCN(C(=O)Nc4cccnc4)CC3)cc2c1=O)NCc1ccc(Cl)c(Cl)c1 [Example 87]	76 nM
CC(C)NC(=O)CN1CCN(c2ccc3ncn(CC(=O)N(C)Cc4ccc(Cl)c(Cl)c4)c(=O)c3c2)CC1 [Example 109]	35 nM
CC(=O)N1CCN(c2ccc3ncn(CC(=O)NCc4cc(Cl)c(Cl)cn4)c(=O)c3c2)CC1 [Example 41]	21 nM
CC(=O)N1CCN(c2ccc3ncn(CC(=O)NCc4ccc(C(F)(F)F)nc4)c(=O)c3c2)CC1 [Example 16]	207 nM
CC(=O)N1CCN(c2ccc3ncn(CC(=O)NCc4cccc([N+](=O)[O-])c4)c(=O)c3c2)CC1 [Example 37]	73 nM
CC(=O)N1CCN(c2ccc3ncn(CC(=O)NCc4ccc(Cl)cc4)c(=O)c3c2)CC1 [Example 10, 2-[6-(4-Acetylpiperazin-1-yl)-4-oxoquinazolin-3-yl]-N-[(4-chlorophenyl)methyl]acetamide]	96 nM
CC(=O)N1CC(C(=O)N2CCN(c3ccc4ncn(CC(=O)N(C)Cc5ccc(Cl)c(Cl)c5)c(=O)c4c3)CC2)C1 [Example 81]	73 nM
CN(Cc1ccc(Cl)c(Cl)c1)C(=O)Cn1cnc2ccc(N3CCN(C(=O)C4COC4)CC3)cc2c1=O [Example 79]	10 nM
CC(=O)N1CCC(c2ccc3ncn(CC(=O)NCc4ccc(Cl)c(Cl)c4)c(=O)c3c2)CC1 [Example 122]	12 nM
O=C(Cn1cnc2ccc(N3CCN(C(=O)NC4CCCC4)CC3)cc2c1=O)NCc1ccc(Cl)c(Cl)c1 [Example 84]	2 nM
CN(Cc1ccc(Cl)c(Cl)c1)C(=O)Cn1cnc2ccc(N3CCN(C(=O)C4CC(F)(F)C4)CC3)cc2c1=O [Example 75]	5 nM
